Measurements: patent US5162361A, “Method of treating diseases associated with elevated levels of interleukin 1” (priority 1990, dated 1992)
“Also recorded” adds a separate entry of the source.

Key:
membrane IL-1 = test: Effect on membrane IL-1 (mIL-1 bioassay); assay type: cell-based, rat; details: LPS 5 ng/ml, 24 h, FIG. 4
Procedure: Membrane IL-1 was assayed as previously described (E. A. Kurt-Jones et al, Proc. Natl. Acad. Sci. USA, 82, 1204 (1985)). 10^5 cells were cultured in media and 10% FCS with or without pentamidine at varying concentrations and LPS at 5 ng/ml for 24 hours and then fixed to the bottom of the 96 well plates with paraformaldehyde. The IL-1 bioassay was then performed as described in Example 1.

alveolar macrophage = test: Alveolar macrophage viability following 24 hour exposure; assay type: cell-based; details: concentrations ≤10^-5 M; normal rat macrophages
Procedure: Dose response studies were performed to determine the molar concentration at which pentamidine reduced viability in normal rat macrophages. […] This blockage was shown using an enzyme linked immunosorbant assay with specific antibody to IL-1β.
Alveolar macrophage viability was assessed by incubating the cells in RPMI 1640 media with 10% fetal calf serum in the presence of pentamidine at the indicated concentrations. Twenty-four hours later the cells were analyzed for viability using ethidium bromide staining. A minimum of 10,000 cells were analyzed by flow cytometry on a FACSCAN analyzer.
These observations have been confirmed using microscopic analysis via trypan blue dye exclusion.

IL-1α [1] = test: Western blot analysis of secreted protein (IL-1α); assay type: cell-based, rat; details: LPS, FIG. 1b
IL-6 = IL-6 secretion by human macrophages; assay type: cell-based; details: Macrophage, 10^-5 M, read-out: Suppression of IL-6 secretion
From the text: (§1) It has also been observed that pentamidine (10^-5 M) blocks the secretion of tumor necrosis factor in rat macrophages (42 units/ml - pentamidine vs. 82 units/ml - control), as well as tumor necrosis factor and IL-6 in human macrophages, where at a concentration of 10^-5 M pentamidine, tumor necrosis factor and IL-6 secretion are suppressed >50%. These additional cytokines are also very influential mediators in inflammatory diseases.

IL-1α [2] = test: Western blot analysis of cell associated IL-1α; assay type: cell-based, rat; details: 10 μM pentamidine, LPS, 24 h, FIG. 3
Procedure: To determine the effect of pentamidine on cellular stores of IL-1, intracellular levels of IL-1 were quantitated by incubating cells with and without 10 μM pentamidine and LPS for 24 hours. At the end of this incubation period, the cells were washed, lysed and the total cellular protein was collected for Western blot analysis. […] This is in agreement with the generally accepted existence of a precursor form of IL-1 with a molecular weight in the range of 31-33 kD (J. Giri et al., J. Immunol. 134, 343 (1985)).
Cells (4×10^6 cells) were oultured with pentamidine (10μM) or dexamethasone (1μM) in media with 10% fetal calf serum (FCS) in the presence or absence of LPS (1 μg/ml) for 24 hours. The cells were washed twice in HBSS and then scraped in homogenizing buffer (HBSS containing 0.1 mM EGTA, 1 mM pmsf, 10 μg/ml leupeptin, 1 KIU/ml aprotinin, pH 7.4). The cell suspension was left on ice for 10 minutes at which time the swollen cells were disrupted by sonication. The nuclei and undisrupted cells were pelleted by centrifugation at 800 rpm for 10 minutes and were discarded. The supernatant was centrifugated at 39,000 rpm for 1 hour at 4° C. After centrifugation, the supernatants containing cytosolic components of the cell was carefully removed and was used as the cytosol fraction. […] Molecular weight references were determined by running one lane with pre-stained molecular weight standards.

tumor necrosis factor = test: Tumor necrosis factor secretion by human macrophages; assay type: cell-based; details: Macrophage, 10^-5 M, read-out: Suppression of tumor necrosis factor secretion
From the text: as §1

Ia antigen = Ia antigen expression on alveolar macrophages (flow cytometry); assay type: cell-based, rat
Procedure: ^a Ia antigen expression - Alveolar macrophages were diluted to 1×10^6 cells/ml in RPMI (supplemented as above). Three mls. (3×10^6 cells) were added to sterile teflon vials and treated with pentamidine or dexamethasone for 4 hours at 37° C., 5% CO2, followed by the addition of rat γ IFN at 100 U/ml. Cells were incubated for 18 hours, pelleted, counted and adjusted to 1×10^7 cells/ml in ice cold standard buffer (HBSS, 0.1% Na azide, 1% BSA).
Aliquots of cells (50 μl in quadruplicate) from the various treatment groups were plated to a 96 well round bottom plate (Linbro) and incubated for 45 minutes on ice with 50 μl aliquots of one of the following: monoclonal anti-rat OXS (Sera-lab), monoclonal anti-mouse OX6 (Sera-lab), both at 0.5 μg/5×10^5 cells, or HBSS (control). Cells were washed 3× with standard buffer and incubated for 45 minutes on ice, in the dark, with 50 μl of phycoerythrin-labeled goat anti-mouse IGGI (Fisher Biotech) at 1 μg/5×10^5 cells. Cells were washed 3× with standard buffer, resuspended in 0.4 ml of standard buffer and analyzed via flow cytometry.

[3] = test system: oxazolone induced hypersensitivity; test: Ear swelling response to oxazolone (delayed-type hypersensitivity); assay type: in vivo, mice; details: pentamidine isethionate (heading), epicutaneous at time of oxazolone challenge, FIG. 5
Procedure: All groups were sensitized with 25 μl of 2.0% oxazolone on day 0 on the shaved dorsal surface of the back. On day 5, each group was treated with 10 μl of pentamidine on each side of the right ear immediately prior to challenge with 10 μl of 0.5% oxazolone on each side of the right ear. The left ear was treated at same time with the oxazolone vehicle (4:1 acetone:olive oil) and in the same manner as the challenged ear. Ear thickness was determined before, 24 and 48 hours after challenge. The concentration of pentamidine for each group was as follows:
Group 1--80 μg/ear pentamidine
Group 2--40 μg/ear pentamidine
Group 3--20 μg/ear pentamidine
Group 4--10 μg/ear pentamidine
Group 5--5 μg/ear pentamidine
Group 6--no treatment (oxazolone positive control)

N=C(N)c1ccc(OCCCCCOc2ccc(C(=N)N)cc2)cc1 [Pentamidine, 1,5-bis(4-amidinophenoxy)pentane]
Amount of bioactive membrane IL-1 (mIL-1) (membrane IL-1): increased in a dose related manner
Loss in cell viability (alveolar macrophage): No significant loss in cell viability
Secreted IL-1 by Western blot (IL-1α [1]): nearly complete block in the release of the intracellular IL-1; also recorded: lack of a lipopolysaccharide inducible IL-1 band
inhibition at 10 µM (IL-6): > 50%
Cell associated IL-1α (Western blot) (IL-1α [2]): allows proper translation of the protein; also recorded: antiserum to murine IL-1α bound to a protein that migrated to approximately 31 kD
inhibition at 10 µM (tumor necrosis factor): > 50%
Ia Antigen Expression (MFI) (Ia antigen; Pentamidine 10^-5 M (control 459)): 464 MFI
Mean concentration of Ia molecules on Ia positive cells (Ia antigen; result in words): nor did it influence the mean concentration of Ia molecules on Ia positive cells
Hypersensitivity response as measured by ear swelling [3]: statistically significant (p<0.001) reduction in the hypersensitivity response
